Measurements reported in patent US20100255469A1, “Cell monitoring and molecular analysis” (priority 2008, published 2010).

What was measured:
[1] = tested on: HT29 cells; experiment: Cell Index monitoring (XCELLIGENCE RTCA SP) of HT29 cells treated with paclitaxel; type: cell-based; settings: 50 nM paclitaxel
Description: HT29 cells were cultivated in parallel in McCoy's medium in either T75 cell culture bottles (for RNA isolation) or an E-Plate 96 (for cell growth monitoring) and in three regular microtiter plates (for WST-1 assay).
The surface of the bottom of a single well of the E-Plate 96 is given with approx. 0.2 cm^2. T75 cell culture bottles have 75 cm^2.
After 24 hours incubation at 37° C. paclitaxel was added to a final concentration of 50 nM. As the 2 mM paclitaxel stock was dissolved in DMSO, control cells were treated with DMSO to a final concentration of 0.0025%. In addition cells treated with medium only were monitored in parallel.
All cells were further incubated at 37° C. The growth of the cells was monitored real time on the RTCA SP Station over the whole course of the experiment (FIG. 3).
To ensure that untreated cells are within the early logarithmic growth phase at the time point of paclitaxel treatment, cells were treated with 50 nM paclitaxel at approx. ⅓ of their maximum Cell Index at 20 hours after seeding.

[2] = tested on: HT29 cells; experiment: qPCR with RealTime Ready Human Cell Cycle Panel, 96 in paclitaxel-treated HT29 cells; type: cell-based; settings: 50 nM paclitaxel vs DMSO control; time points 1, 2, 4, 24 hours
Description: (§1) Cells were harvested for RNA isolation after one, two, four and 24 hours. Cell number was determined and portions of 10^6 cells were used for RNA isolation applying the High Pure RNA Isolation Kit following the manufacturer's instruction.
(§2) From each RNA population 1 μg total RNA was used for cDNA synthesis with the Transcriptor First Strand cDNA Synthesis Kit.
(§3) The total yield of one cDNA synthesis reaction starting from 1 μg RNA was used as template for each RealTime ready Human Apoptosis Panel, 96 or RealTime ready Human Cell Cycle Panel, 96. Total PCR reaction volume per well was 20 μl with Light Cycler480 Probes Master. The easy-to-use macro for the panel containing PCR protocol, sample setup and analysis was applied on LIGHTCYCLER480 software 1.5.
(§4) Four time points, one, two, four and twenty four hours were selected for qPCR runs on the LIGHTCYCLER480 system using the RealTime Ready Human Apoptosis Panel, 96 (FIG. 5) and the RealTime Ready Human Cell Cycle Panel, 96 (FIG. 7). Gene names corresponding to the numbers that can be found in the package insert of both panels (Roche Applied Science).

[3] = tested on: MCF-7 cells; experiment: Impedance-based real time cell analysis (XCELLIGENCE) of MCF-7 cells treated with Paclitaxel; set-up: species or system human; settings: 12.5 nM Paclitaxel
Description: In this example, we have investigated gene expression profiles of human MCF-7 breast cancer cells (human adenocarcinoma breast cancer cell line) obtained from ATCC (passage number: 15, cell number: 5000 cells per well), maintained in MEM (32360, Gibco)+10% FCS (30-3702, PAN)+Na-Pyruvat (PO4-43100, PAN)+Nonessential amino acids (P08-32100, PAN) at time points that are indicated by changes in cell characteristics as visualized by changes of impedance (cell indices) measurements upon drug addition. Accordingly, gene expression profiles were determined at 6 h, 24 h, 72 h and 147 h upon Paclitaxel administration. […] It includes genes involved in various biological functions such as cell cycle regulation and cell proliferation, apoptosis, signal transduction and transcriptional regulation, fatty acid and sterol metabolism and IFN-mediated signaling (Bani, M., R., et al., Molecular Cancer Therapeutics 3(2) (2004) 111-121). With respect to the two time points (6 h and 24 h upon drug administration) microarray studies had been performed by other groups and we were able to reproduce 70% of their results (Bani, M., R., et al., Molecular Cancer Therapeutics 3(2) (2004) 111-121). In addition, we determined mRNA levels at two additional time points (72 h and 147 h upon drug administration) during prolonged drug exposure of cells.
Procedure: Seeding, Growth. […]
5000 MCF-7 cells were seeded per well and 24 h later treated with a final concentration of 12.5 nM Paclitaxel (dissolved in DMSO). […] The Paclitaxel concentration we applied in this experiment represents twice the IC50-value of this drug for MCF-7 cells and had been determined in an dose-response experiment (Paclitaxel titration) with the XCELLIGENCE system and an appropriate tool of the XCELLIGENCE software SP1.0.0.0807 (data not shown).

[4] = tested on: MCF-7 cells; experiment: Gene expression profiling by q-RT-PCR (LIGHTCYCLER 480) of Paclitaxel-treated MCF-7 cells; type: cell-based, human
Description: We have performed gene expression profiling experiments of MCF-7 cells treated with Paclitaxel for a period of approximately 150 h. Within this example the gene expression of 20 different genes (gene accession numbers in brackets) were monitored:
We intended to determine and reproduce gene expression changes with time upon drug treatment, the majority of which had been observed and described before by others in an independent in vivo-study based on DNA microarray technique using ovarian carcinoma xenografts ([…], M., R., et al., Molecular Cancer Therapeutics 3(2) (2004) 111-121; Boschke, C., B., et al., Uni Tubingen (2008)). The time points for our pharmacokinetic screens have been chosen depending on cellular changes in response to Paclitaxel-treatment which were monitored by impedance-based real time cell analysis using the XCELLIGENCE system. Independent from the quality and extent of these cellular changes we harvested non-treated controls and drug-treated cells at their appropriate time points (6, 24, 72 and 147 h), isolated the mRNA by means of the MAGNA PURE System, reverse transcribed the total mRNA into cDNA using a common Thermocycler, pooled and diluted the cDNA samples and amplified the predefined set of specific genes as well as house keeping genes in triplicates by q-RT-PCR making use of the LIGHTCYCLER 480 System. Necessary primer pairs were synthesized and tested for functionality in-house in combination with a bioinformatically determined UPL probe (data not shown). The LIGHTCYCLER software 1.5 allowed the relative quantification of the selected mRNA abundance under Paclitaxel-treated conditions with respect to the corresponding non-treated situation (reference). Results are corrected by the values determined for internal standard genes (stably expressed house keeping genes), like β-Actin, β-Globin and GAPDH. […]

[5] = tested on: HT29 cells; experiment: qPCR with RealTime Ready Human Apoptosis Panel, 96 in paclitaxel-treated HT29 cells; type: cell-based
Description: as §1, §2, §3, §4

CC(=O)O[C@H]1C(=O)[C@@]2(C)[C@H]([C@H](OC(=O)c3ccccc3)[C@]3(O)C[C@H](OC(=O)[C@H](O)[C@@H](NC(=O)c4ccccc4)c4ccccc4)C(C)=C1C3(C)C)[C@]1(OC(C)=O)CO[C@@H]1C[C@@H]2O [Paclitaxel]
time after treatment to reach minimum Cell Index [1]: approx. 24 hours | Cell Index (normalized) ([1]; 24 hours after treatment): zero | Cell Index change ([1]; within the first hour after treatment): slightly increased | time of most dramatic effects on cell cycle gene expression [2]: within the first four hours | time upon drug addition at which proliferation curve switches from descending to ascending course [3]: approximately 20 h | course of proliferation curve (impedance / cell index) versus control ([3]; control 0.1% DMSO): lower impedance or cell index values | time upon drug treatment at which proliferation curve again begins to descend ([3]; descent continues up to ca. 150 h): around 70 h | gene expression changes of investigated genes ([4]; 6 h upon drug addition, 12.5 nM Paclitaxel, vs non-treated): only small changes in expression | gene expression changes of selected genes (e.g. CDKN1A, FOS, PIG8, TOP2A, MADH2) ([4]; 24 h after Paclitaxel treatment, 12.5 nM): become more obvious | gene expression changes (ISG15, IFITM1, BNIP3, SLUG, ARF-1, CDC2, PLAB, IDI1) ([4]; later stages (72 and 147 h) of Paclitaxel treatment, 12.5 nM): strongest gene expression changes | number of genes significantly (more than 4 times) up/down regulated ([5]; 50 nM paclitaxel vs DMSO control, all time points compared): 6 genes | time of most significant alteration of expression level of apoptosis related genes ([5]; 50 nM paclitaxel vs DMSO control, time points 1, 2, 4, 24 hours): within the first hour | significant gene expression changes compared to DMSO control ([5]; two and four hours after paclitaxel treatment, 50 nM): no genes show significant expression changes
